Measured values reported in patent US20180000778A1, “SMALL MOLECULE ANTAGONISTS OF DUSP5 AND METHODS OF USE” (THE MEDICAL COLLEGE OF WISCONSIN, INC., priority 2015, published 2018).

Experiments:
[1] = test system: pERK levels in HUVEC cells; test: pERK levels in HUVEC cells, western blot; assay type: cell-based, Human; conditions: HUVECs incubated 2 hours, pERK relative to total ERK; Na3VO4 at 200 μM
Method: Cell Culture and Western Blots.
Human Umbilical Vein Endothelial Cells (HUVECs) were maintained in EBM2 media (Lonza, CC-3156) supplemented with a combined serum and growth factor kit (Lonza, CC-4176). Cells were incubated with the indicated concentrations of drug for 2 h and lysed with RIPA buffer (Sigma, R0278) on ice. Cell lysates were cleared by centrifugation at 16,300×g for 30 min. The resulting supernatants were isolated and protein concentration determined by Lowry assay (DC protein assay, BioRad). 2× laemmli sample buffer was added to equal amounts of protein and separated by SDS-PAGE. The protein gels were transferred to polyvinylidene difluoride (PVDF) and immunoblotted using antibodies to phosphorylated ERK (Cell Signaling, #9106) and total ERK (Cell Signaling, #9102). Bound antibodies were visualized using horseradish peroxidase-linked anti-rabbit IgG, anti-mouse IgG (Cell Signaling Tech., #7074 and #7076) and ECL reagents (Thermo Scientific, 34080) according to the manufacturer's protocol.

PTPN13 (FAP-1) = PTPN13 (FAP-1) (Homo sapiens, UniProt Q12923); test: Phosphatase profiling, pNPP substrate; assay type: biochemical; conditions: 30 μM, triplicate; positive = activation
Method: (§1) Assays were performed to profile compound CSDDD2320 against 21 phosphatase targets at 1 concentration (30 μM) in triplicate measurements. The aim was to identify whether the compound can affect the activity of the various phosphatase targets selected.
(§2) Protein Phosphatase Assay: The DUSP22, PTPN2 (TC-PTP), PTPN7 (LC-PTP), PTPRA (LRP), PTPRC (CD45), PTPRE, PTPRS, PTPN1(PTP1B) and PTPN13(FAP-1) phosphatase activity was determined by performing assays at 37° C. for 15 minutes in a final volume of 100 μl according to the following assay reaction recipe:
(§3) Component 1. 5 μl of diluted active protein phosphatase
(§4) Component 2. 50 μl of 1.5 mM pNPP substrate assay solution
(§5) Component 3. 25 μl of phosphatase assay buffer
(§6) Component 4. 20 μl of compound (150 μM) or 10% DMSO
(§7) The assay was started by incubating the reaction mixture at 37° C. for 15 minutes. After the 15 minute incubation period, the assay was terminated by the addition of 25 μl of 2N NaOH stopping solution. The absorbance of the reaction solution was measured in a spectrophotometer at 405 nm. Blank control was set up that included all the assay components except the addition of the pNPP substrate (replaced with equal volume of phosphatase assay buffer). The corrected activity for various phosphatase targets was determined by removing the blank control value.

PTPRA (LRP) = PTPRA (LRP) (Homo sapiens, UniProt P18433); test: Phosphatase profiling, pNPP substrate; assay type: biochemical; conditions: 30 μM, triplicate; positive = activation
Method: as §1, §2, §3, §4, §5, §6, §7

CDC25A = CDC25A (Homo sapiens, UniProt P30304); test: Phosphatase profiling, Biomol Green; assay type: biochemical; conditions: 30 μM, triplicate; positive = activation
Method: as §1
(§8) The PTPN6 (SHP1), PTPRF (LAR), PP1A, PP1B, PP2A, PTPN12(PTP-PEST), PTPN11(SHP2), CDC25A, CDC25B, CDC25C, PP2Ca, and PP2Cg phosphatase activity was determined by performing assays at 37° C. for 15 minutes in a final volume of 50 μl according to the following assay reaction recipe:
(§9) Component 1. 10 μl of diluted active protein phosphatase
(§10) Component 2. 5 μl of 1 mM tyrosine phosphopeptide-2 substrate (for PTPN6, PTPRF, PTPN12, and PTPN11) or threonine phosphopeptide substrate (for PP1A, PP1B, PP2A and PP2Cg) or PI(3,4,5)P3 substrate (for PTEN) or OMFP substrate (for CDC25A, CDC25B and CDC25C)
as §5
(§11) Component 4. 10 μl of compound (150 μM) or 10% DMSO
(§12) The assay was started by incubating the reaction mixture at 37° C. for 15 minutes. After the 15 minutes incubation period, the assay was terminated by the addition of 100 μl of Biomol Green reagent. The absorbance of the reaction solution was measured in a spectrophotometer at 650 nm. Blank control was set up that included all the assay components except the addition of the tyrosine phosphopeptide-2 substrate or related substrate (replace with equal volume of phosphatase assay buffer). The corrected activity for various phosphatase targets was determined by removing the blank control value.

CDC25B = CDC25B (Homo sapiens, UniProt P30305); test: Phosphatase profiling, Biomol Green; assay type: biochemical; conditions: 30 μM, triplicate
Method: as §1, §8, §9, §10, §5, §11, §12

CDC25C = CDC25C (Homo sapiens, UniProt P30307); test: Phosphatase profiling, Biomol Green; assay type: biochemical; conditions: 30 μM, triplicate; positive = activation
Method: as §1, §8, §9, §10, §5, §11, §12

PP1A = PP1A (Homo sapiens, UniProt P62136); test: Phosphatase profiling, Biomol Green; assay type: biochemical; conditions: 30 μM, triplicate; negative = inhibition
Method: as §1, §8, §9, §10, §5, §11, §12

PP2A = test: Phosphatase profiling, Biomol Green; assay type: biochemical; conditions: 30 μM, triplicate; negative = inhibition
Method: as §1, §8, §9, §10, §5, §11, §12

PP2Ca = PP2Ca (Homo sapiens, UniProt P35813); test: Phosphatase profiling, Biomol Green; assay type: biochemical; conditions: 30 μM, triplicate; negative = inhibition
Method: as §1, §8, §9, §10, §5, §11, §12

PP2Cg = PP2Cg (Homo sapiens, UniProt O15355); test: Phosphatase profiling, Biomol Green; assay type: biochemical; conditions: 30 μM, triplicate
Method: as §1, §8, §9, §10, §5, §11, §12

PTPN11 (SHP2) = PTPN11 (SHP2) (Homo sapiens, UniProt Q06124); test: Phosphatase profiling, Biomol Green; assay type: biochemical; conditions: 30 μM, triplicate; positive = activation
Method: as §1, §8, §9, §10, §5, §11, §12

PTPN12 (PTP-PEST) = PTPN12 (PTP-PEST) (Homo sapiens, UniProt Q05209); test: Phosphatase profiling, Biomol Green; assay type: biochemical; conditions: 30 μM, triplicate; negative = inhibition
Method: as §1, §8, §9, §10, §5, §11, §12

PTPRF (LAR) = PTPRF (LAR) (Homo sapiens, UniProt P10586); test: Phosphatase profiling, Biomol Green; assay type: biochemical; conditions: 30 μM, triplicate
Method: as §1, §8, §9, §10, §5, §11, §12

PTPN1 = molecular target: T1, PTPN1 (Homo sapiens, UniProt P18031); test: Phosphatase inhibition profiles (Table 4), initial rates; assay type: biochemical
T1 sequence (P18031 1-435): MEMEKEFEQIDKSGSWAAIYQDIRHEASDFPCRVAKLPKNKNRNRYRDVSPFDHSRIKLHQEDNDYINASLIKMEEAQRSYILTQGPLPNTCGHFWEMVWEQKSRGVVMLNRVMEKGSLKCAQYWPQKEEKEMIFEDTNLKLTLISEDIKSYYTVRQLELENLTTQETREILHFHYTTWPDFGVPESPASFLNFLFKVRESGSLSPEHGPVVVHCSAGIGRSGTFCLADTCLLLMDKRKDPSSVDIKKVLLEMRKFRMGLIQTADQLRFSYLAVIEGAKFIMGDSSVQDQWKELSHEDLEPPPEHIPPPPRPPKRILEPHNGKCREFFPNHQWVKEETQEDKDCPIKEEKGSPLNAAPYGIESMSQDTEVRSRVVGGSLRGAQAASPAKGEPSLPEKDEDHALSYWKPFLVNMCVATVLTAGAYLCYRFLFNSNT

Chain of PTPN13 (FAP-1) (Q12923 whole entry, species assumed): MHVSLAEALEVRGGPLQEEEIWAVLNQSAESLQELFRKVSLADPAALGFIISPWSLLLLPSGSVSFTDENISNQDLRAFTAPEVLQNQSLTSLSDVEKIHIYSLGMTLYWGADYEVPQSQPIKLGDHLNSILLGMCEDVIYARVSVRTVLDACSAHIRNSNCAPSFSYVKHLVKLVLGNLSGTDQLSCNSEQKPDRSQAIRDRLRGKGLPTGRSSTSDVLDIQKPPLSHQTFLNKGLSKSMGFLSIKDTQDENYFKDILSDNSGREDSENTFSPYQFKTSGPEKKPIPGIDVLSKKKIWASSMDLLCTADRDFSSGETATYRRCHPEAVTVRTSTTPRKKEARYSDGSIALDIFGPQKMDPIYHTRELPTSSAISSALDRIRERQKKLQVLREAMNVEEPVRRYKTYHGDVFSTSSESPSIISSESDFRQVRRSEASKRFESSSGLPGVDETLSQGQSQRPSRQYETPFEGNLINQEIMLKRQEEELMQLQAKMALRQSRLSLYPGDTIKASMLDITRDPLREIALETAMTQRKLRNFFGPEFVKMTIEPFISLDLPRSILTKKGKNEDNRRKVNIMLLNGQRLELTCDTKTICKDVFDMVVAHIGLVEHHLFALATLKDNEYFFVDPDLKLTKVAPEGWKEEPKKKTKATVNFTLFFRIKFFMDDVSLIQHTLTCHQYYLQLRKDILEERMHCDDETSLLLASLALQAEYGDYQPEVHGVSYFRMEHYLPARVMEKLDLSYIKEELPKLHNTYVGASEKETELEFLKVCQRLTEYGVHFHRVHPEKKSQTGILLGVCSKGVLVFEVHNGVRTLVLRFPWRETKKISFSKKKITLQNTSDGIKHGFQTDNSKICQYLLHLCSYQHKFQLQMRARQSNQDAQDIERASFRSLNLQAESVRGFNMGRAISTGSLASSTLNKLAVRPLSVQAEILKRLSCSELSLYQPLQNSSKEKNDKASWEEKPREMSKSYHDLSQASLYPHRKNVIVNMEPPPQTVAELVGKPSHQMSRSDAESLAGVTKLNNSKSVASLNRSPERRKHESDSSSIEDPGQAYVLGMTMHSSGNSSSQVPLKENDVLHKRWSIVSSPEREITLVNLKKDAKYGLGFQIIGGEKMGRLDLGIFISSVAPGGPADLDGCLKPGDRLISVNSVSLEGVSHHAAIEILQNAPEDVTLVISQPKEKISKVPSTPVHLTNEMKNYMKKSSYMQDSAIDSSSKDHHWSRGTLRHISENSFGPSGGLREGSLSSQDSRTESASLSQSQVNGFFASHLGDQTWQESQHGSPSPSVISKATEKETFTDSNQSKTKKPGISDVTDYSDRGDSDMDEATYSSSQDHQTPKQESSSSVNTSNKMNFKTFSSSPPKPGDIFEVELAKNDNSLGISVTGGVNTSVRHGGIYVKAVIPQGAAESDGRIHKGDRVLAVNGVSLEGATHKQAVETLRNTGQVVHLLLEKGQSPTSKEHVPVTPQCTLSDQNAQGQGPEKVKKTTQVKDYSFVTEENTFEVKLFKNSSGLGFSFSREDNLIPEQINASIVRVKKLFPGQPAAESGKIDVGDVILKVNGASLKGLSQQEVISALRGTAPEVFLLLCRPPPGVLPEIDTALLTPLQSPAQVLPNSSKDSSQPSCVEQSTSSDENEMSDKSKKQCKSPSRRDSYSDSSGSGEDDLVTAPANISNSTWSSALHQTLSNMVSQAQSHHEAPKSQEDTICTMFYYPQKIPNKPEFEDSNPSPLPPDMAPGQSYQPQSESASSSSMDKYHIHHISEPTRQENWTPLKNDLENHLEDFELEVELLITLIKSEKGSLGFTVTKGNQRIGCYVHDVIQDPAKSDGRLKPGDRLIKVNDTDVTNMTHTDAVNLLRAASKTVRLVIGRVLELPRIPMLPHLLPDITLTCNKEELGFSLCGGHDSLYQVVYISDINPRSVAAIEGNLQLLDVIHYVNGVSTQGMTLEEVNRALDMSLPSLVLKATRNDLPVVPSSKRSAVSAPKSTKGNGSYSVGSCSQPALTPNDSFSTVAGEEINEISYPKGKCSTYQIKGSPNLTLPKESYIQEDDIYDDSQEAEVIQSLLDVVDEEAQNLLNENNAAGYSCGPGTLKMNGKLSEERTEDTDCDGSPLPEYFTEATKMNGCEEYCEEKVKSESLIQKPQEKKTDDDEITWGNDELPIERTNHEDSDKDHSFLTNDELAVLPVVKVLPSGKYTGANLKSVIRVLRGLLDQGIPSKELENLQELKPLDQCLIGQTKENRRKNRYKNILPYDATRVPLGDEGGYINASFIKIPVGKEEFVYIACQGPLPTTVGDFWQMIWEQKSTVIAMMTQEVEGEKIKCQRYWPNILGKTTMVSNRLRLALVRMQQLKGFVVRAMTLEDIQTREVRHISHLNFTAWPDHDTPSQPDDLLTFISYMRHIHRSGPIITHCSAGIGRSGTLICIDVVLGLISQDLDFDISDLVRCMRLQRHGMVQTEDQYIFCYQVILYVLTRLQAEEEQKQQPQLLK
Chain of PTPRA (LRP) (P18433 20-802, species assumed): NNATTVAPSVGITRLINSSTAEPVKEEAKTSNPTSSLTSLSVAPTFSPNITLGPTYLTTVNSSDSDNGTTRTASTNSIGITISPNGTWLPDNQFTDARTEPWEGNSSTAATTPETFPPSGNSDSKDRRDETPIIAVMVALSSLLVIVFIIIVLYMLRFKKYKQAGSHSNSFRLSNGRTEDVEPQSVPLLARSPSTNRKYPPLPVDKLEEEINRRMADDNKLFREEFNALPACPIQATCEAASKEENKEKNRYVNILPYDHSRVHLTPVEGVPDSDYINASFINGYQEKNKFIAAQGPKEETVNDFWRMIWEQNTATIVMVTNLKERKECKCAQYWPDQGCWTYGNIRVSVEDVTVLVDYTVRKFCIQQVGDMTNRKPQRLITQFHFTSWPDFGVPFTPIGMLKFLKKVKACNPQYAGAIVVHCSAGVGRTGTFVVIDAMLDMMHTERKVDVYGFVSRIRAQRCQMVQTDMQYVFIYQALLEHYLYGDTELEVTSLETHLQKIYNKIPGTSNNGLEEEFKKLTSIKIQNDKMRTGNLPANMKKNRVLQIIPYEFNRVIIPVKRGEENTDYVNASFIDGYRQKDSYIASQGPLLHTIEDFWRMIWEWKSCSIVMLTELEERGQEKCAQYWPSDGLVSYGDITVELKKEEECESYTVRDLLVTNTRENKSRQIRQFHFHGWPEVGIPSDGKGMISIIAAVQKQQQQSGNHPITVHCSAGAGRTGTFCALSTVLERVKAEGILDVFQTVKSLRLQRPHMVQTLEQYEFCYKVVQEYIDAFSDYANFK
Chain of CDC25C (P30307 whole entry, species assumed): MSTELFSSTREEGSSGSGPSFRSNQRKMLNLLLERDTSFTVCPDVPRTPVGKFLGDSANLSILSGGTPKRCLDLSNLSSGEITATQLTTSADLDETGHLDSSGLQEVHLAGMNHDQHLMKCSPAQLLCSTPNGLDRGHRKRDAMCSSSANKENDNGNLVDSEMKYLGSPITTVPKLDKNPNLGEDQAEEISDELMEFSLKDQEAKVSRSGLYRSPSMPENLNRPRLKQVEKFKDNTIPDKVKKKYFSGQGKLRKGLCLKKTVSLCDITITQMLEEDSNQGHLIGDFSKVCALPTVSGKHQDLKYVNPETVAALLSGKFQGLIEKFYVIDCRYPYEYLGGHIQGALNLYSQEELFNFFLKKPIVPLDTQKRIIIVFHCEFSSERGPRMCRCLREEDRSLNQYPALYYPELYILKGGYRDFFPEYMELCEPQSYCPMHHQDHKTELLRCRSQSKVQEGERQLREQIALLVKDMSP
Chain of PTPN12 (PTP-PEST) (Q05209 whole entry, species assumed): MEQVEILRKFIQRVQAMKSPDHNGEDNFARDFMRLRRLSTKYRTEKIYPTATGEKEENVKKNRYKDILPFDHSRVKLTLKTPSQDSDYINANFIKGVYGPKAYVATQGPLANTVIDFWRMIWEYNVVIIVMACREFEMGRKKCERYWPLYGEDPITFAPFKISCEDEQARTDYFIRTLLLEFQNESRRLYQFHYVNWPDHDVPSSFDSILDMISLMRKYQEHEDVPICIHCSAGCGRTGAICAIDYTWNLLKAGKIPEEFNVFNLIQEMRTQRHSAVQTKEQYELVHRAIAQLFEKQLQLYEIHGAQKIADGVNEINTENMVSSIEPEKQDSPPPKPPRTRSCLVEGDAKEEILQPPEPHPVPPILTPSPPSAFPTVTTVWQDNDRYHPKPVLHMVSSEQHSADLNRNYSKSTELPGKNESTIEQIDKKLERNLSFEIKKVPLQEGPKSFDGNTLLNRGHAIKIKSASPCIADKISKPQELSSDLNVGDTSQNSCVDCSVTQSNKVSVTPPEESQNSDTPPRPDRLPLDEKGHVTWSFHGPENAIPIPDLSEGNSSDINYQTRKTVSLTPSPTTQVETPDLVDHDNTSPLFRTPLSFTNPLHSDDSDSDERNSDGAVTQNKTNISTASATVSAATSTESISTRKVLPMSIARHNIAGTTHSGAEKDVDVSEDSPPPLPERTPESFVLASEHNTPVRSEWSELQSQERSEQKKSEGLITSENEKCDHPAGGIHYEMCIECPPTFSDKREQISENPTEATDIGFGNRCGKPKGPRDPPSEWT
Chain of PP2Ca (P35813 whole entry): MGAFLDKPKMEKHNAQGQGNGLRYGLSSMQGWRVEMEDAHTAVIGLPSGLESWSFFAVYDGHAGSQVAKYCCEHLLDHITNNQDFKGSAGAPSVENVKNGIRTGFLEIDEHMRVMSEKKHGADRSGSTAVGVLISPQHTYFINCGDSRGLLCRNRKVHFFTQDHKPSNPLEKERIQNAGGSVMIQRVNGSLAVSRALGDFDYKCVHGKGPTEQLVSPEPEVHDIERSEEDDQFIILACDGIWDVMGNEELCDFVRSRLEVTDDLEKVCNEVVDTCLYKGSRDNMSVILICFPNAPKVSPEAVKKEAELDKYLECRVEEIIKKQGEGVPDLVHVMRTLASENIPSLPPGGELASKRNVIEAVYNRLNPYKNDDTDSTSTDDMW

% Change (activity change compared to control) (PTPN13 (FAP-1)) [%] | % Change (activity change compared to control) (PTPRA (LRP)) [%] | % Change (activity change compared to control) (CDC25A) [%] | % Change (activity change compared to control) (CDC25B) [%] | % Change (activity change compared to control) (CDC25C) [%] | % Change (activity change compared to control) (PP1A) [%] | % Change (activity change compared to control) (PP2A) [%] | % Change (activity change compared to control) (PP2Ca) [%] | % Change (activity change compared to control) (PP2Cg) [%] | % Change (activity change compared to control) (PTPN11 (SHP2)) [%] | % Change (activity change compared to control) (PTPN12 (PTP-PEST)) [%] | % Change (activity change compared to control) (PTPRF (LAR)) [%] | IC50 PTPN1 (mean ± SE) (PTPN1) | SMILES | effect on pERK levels [1]
 |  |  |  |  |  |  |  |  |  |  |  |  | O=S(=O)([O-])c1ccc2[nH]c3c(S(=O)(=O)[O-])cc(S(=O)(=O)[O-])cc3c2c1.[Na+].[Na+].[Na+] [RR505, Carbazole-1,3,6-trisulfonic acid, Trisodium Salt] | do not show biologically useful levels of potency
6 | 5 | 7 | 0 | 4 | −3 | −3 | −7 | 0 | 4 | −1 | 0 | Does not inhibit | O=S(=O)(O)c1cc(O)c2c(S(=O)(=O)O)cccc2c1 [RR527] | 
